Reference: patent US11517597B2, “Method for improving skin condition with postbiotic extract” (CHAMBIO CO., LTD., priority 2020, dated 2022)

What was measured:
Hs68 cells [1] = test: TGF-β content of Hs68 cells (ELISA); format: cell-based, Human; conditions: 24 hours
Description: (§1) • 2. Human foreskin fibroblast cell line Hs68 was purchased from the Bioresource Collection and Research Center of the Food Industry Research and Development Institute (BCRC of FIRDI, Taiwan). Hs68 cells were grown in a 10-cm Petri dish containing Dulbecco's Modified Eagle's Medium (DMEM) (Thermo Fisher Scientific) supplemented with 10% fetal bovine serum (FBS). The Hs68 cells were cultivated in an incubator with culture conditions set at 37° C. and 5% CO2. Medium change was performed every two to three days. Cell passage was performed when the cultured cells reached 80%-90% of confluence. • 3.
General Procedures: • 1. Determination of transforming growth factor-β (TGF-β) content
The TGF-β content was determined using an enzyme-linked immunosorbent assay (ELISA) kit (Cat. No. 559119, BD Biosciences) in accordance with the manufacturer's instructions.
(§2) Hs68 cells were divided into 25 groups, including one control group, twelve comparative groups (i.e., comparative groups L-1 to L-6 and B-1 to B-6), and twelve experimental groups (i.e., experimental groups L-1 to L-6 and B-1 to B-6). Each group of the Hs68 cells was incubated in a respective well of a 96-well culture plate containing 200 μL of DMEM at 1×10^4 cells/well, followed by cultivation in an incubator (37° C., 5% CO2) for 24 hours. […] The cell culture of the control group received no treatment.
After cultivation in an incubator (37° C., 5% CO2) for 24 hours, the respective resultant cell culture was subjected to the determination of TGF-β content according to the method described in section 1 of “General Procedures”.
(§3) Hs68 cells were divided into 28 groups, including fourteen comparative groups (i.e., comparative groups 1 L to 7 L and 1H to 7H) and fourteen experimental groups (i.e., experimental groups 1 L to 7 L and 1B to 7B). Each group of the Hs68 cells was incubated in a respective well of a 96-well culture plate containing 200 μL of DMEM at 1×10^4 cells/well, followed by cultivation in an incubator (37° C., 5% CO2) for 24 hours.

Hs68 cells [2] = test: Proliferation of Hs68 cells (MTT, OD570 converted to cell number); format: cell-based, Human; conditions: 24 hours
Description: as §1
as §2, with “3” for “25”, “group” for “group, twelve comparative groups (i.e., comparative groups L-1 to L-6”, “two” for “B-1 to B-6), and twelve”, “L” for “L-1 to L-6”, “B).” for “B-1 to B-6).”
After cultivation in an incubator (37° C., 5% CO2) for 24 hours, the respective resultant cell culture was stained with 3-(4,5-Dimethylthiazol-2-yl)-2,5-diphenyltetrazolium bromide (MTT), followed by subjecting the stained cells to determination of absorbance at a wavelength of 570 nm by a spectrophotometer. The OD570 values obtained were subsequently converted to cell numbers based on a correlation curve previously prepared by plotting different known cell numbers of Hs68 cells versus their OD570 values.
as §3
After cultivation in an incubator (37° C., 5% CO2) for 24 hours, the cell number of each group was determined according to the method described in section C of this example. The fold increase of viable cells was calculated using the following Equation (II): C=D/E (II) where C=fold increase of viable cells • D=cell number of respective experimental group or comparative group • E=cell number of corresponding comparative group 1 L, 2 L, 3 L, 4 L, 5 L, 6 L, or 7 L

[3] = nutritional component only 100 mg/L
[4] = nutritional component only 200 mg/L
[5] = nutritional component only 100 mg/L (the reference group of Equation II)
[6] = nutritional component only 200 mg/L, relative to 100 mg/L group

Row | Molecule | TGF-β content (Hs68 cells [1]; [3]) [pg/mL] | TGF-β content (Hs68 cells [1]; [4]) [pg/mL] | Fold increase of viable Cells (Hs68 cells [2]; [5]) | Fold increase of viable Cells (Hs68 cells [2]; [6])
1 | N[C@H]1C(O)O[C@H](CO)[C@@H](O)[C@@H]1O (stereo partly drawn) [Glucosamine] | 51.1 | 61.3 | 1.0 | 1.1
2 | O=C1O[C@H]([C@@H](O)CO)C(O)=C1O [Vitamin C] | 52.2 | 63.1 | 1.0 | 1.1
3 | Chondroitin | 120.5 | 128.8 | 1.0 | 1.1
